Data: publication PMC12559800, “A NADH Oxidase Nanozyme Restores Redox Homeostasis to Ameliorate Multi-Organ Aging and Ischemic Cardiomyopathy” (Research, 2025)

Target: T1, CX43 (connexin 43; recombinant human CX43) (Homo sapiens, UniProt P17302)
T1 construct: gene GJA1; recombinant human CX43 from GenScript, immobilised on CM5 chip
Assay: SPR, Biacore T200, CX43 immobilised on CM5 chip
Type: binding

T1 sequence (P17302 2-382): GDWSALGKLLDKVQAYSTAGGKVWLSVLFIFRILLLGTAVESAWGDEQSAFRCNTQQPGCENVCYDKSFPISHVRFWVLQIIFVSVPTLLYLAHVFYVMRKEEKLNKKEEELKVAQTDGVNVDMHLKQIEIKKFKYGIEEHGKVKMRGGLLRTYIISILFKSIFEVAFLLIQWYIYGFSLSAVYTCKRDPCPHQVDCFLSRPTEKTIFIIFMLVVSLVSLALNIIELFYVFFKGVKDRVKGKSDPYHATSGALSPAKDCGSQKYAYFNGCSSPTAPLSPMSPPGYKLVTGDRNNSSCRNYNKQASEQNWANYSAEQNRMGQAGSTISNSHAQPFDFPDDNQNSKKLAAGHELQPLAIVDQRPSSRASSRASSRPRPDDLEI

NC(=O)c1ccc[n+]([C@@H]2O[C@H](COP(=O)([O-])OP(=O)(O)OC[C@H]3O[C@@H](n4cnc5c(N)ncnc54)[C@H](O)[C@@H]3O)[C@@H](O)[C@H]2O)c1 [NAD^+]
Kd: 0.0142 nM
